Assay: Thermal stability test (Gardner color of DMF solution before and after 150° C. for 3 hours)
Format: physicochemical
Settings: for Color (Gardner color scale), after thermal processing for 3 hours / Color (Gardner color scale), initial: 2 g in 10 ml DMF; for Color (Gardner color scale), after thermal processing for 3 hours: 150° C. for 3 hours; for Color (Gardner color scale), initial: before thermal processing; for Change in color (delta color): before and after heating at 150° C. for 3 hours
Method: 2 g each of the reactive UV absorber I of the present invention, the comparative reactive UV absorber A, and the comparative reactive UV absorber B represented by the following formula B (an embodiment of reactive UV absorber with formula (IIIb) disclosed by U.S. Pat. No. 5,459,222) were respectively dissolved in 10 ml of dimethylformamide (DMF), and the obtained dimethylformamide solutions were subjected to thermal processing at 150° C. for 3 hours. The Gardner color scales of the solutions were measured by colorimeter (Lovibond PFXi-195).

Row | Structure (SMILES) | Color (Gardner color scale), after thermal processing for 3 hours | Color (Gardner color scale), initial | Change in color (delta color)
1 | CC(C)(C)c1cc(CCC(=O)N(CCO)CCO)cc(-n2n3c4ccccc4n23)c1O [Comparative reactive UV absorber A] | 9.1 | 5.4 | 3.7
2 | Cc1cc(CN(CCO)CCO)c(O)c(-n2n3c4ccccc4n23)c1 [Comparative reactive UV absorber B] | 7.2 | 4.2 | 3.0
